Values quoted from earlier work in patent US20040024065A1, “Novel metabolic targets and markers” (priority 2002, published 2004).

Experiments:
[1] = tested on: rat hepatocytes; conditions: rat hepatocytes incubated with inhibitor
[2] = tested on: PEMT; conditions: alcohol consumption, before the development of cirrhosis

Row | SMILES | PC synthesis via methylation of PE derived from ethanolamine, inhibited [1] | amount of PE in the cells [1] | amount of PE secreted into the medium, increase [1] [%] | secretion of the apoproteins into VLDL, LDL, HDL fractions or fraction with density greater than 1.18 g/ml [1] | activity of PEMT [2]
1 | Nc1nccc2c1ncn2[C@@H]1O[C@H](CO)[C@@H](O)[C@H]1O [3-deazaadenosine] | more than 95% | doubled | 70 | not affected | 
2 | CCO [alcohol] |  |  |  |  | depresses
